Experimental data: PubChem BioAssay AID1963849 (Molecular Pharmacology Branch, DTP, NCI, 2024)

Test system: 299254-011-R-J1-PDC complex spheroid viability
Assay: Anticancer human tumor 299254-011-R-J1-PDC patient-derived melanoma cell line growth inhibition [POLQ]
Conditions: for IC50: curve of first compound; for viability, T/C: stronger effect = lower value
Protocol: Multicellular complex tumor spheroid response to Polymerase (POL) inhibitors (novobiocin, ART-558, RP6685) in combination with a variety of drugs and investigational agents in selected tumor cell lines
The POL inhibitors (novobiocin, ART-558, and RP6685) were evaluated both individually and in combination with standard of care and investigational anticancer small molecules within a complex spheroid model of solid tumors. . Complex spheroids include a stromal component modeled by human endothelial cells (HUVEC) and fibroblasts modeled by human mesenchymal stem cells (MSCs). The concentration ranges selected for each drug and investigational agent were based upon clinically achievable concentrations if the clinical Cmax of the agent was known.
Compounds. The drugs and investigational agents: novobiocin (NSC847541), ART-558 (NSC835418), RP-6685 (NSC848927), peposertib (NSC802822), ceralasertib (NSC780249), elimusertib (NSC800525), camonsertib (NSC841442), AZD-1390 (NSC803789), olaparib (NSC753686), talazoparib (NSC767125), rucaparib (NSC756644), sotorasib (NSC818433), MRTX-1133 (NSC836407), SN-38 (NSC673596), topotecan (NSC609699), epotoside (NSC141540), doxorubicin (NSC123127), gemcitabine (NSC613327), 5-fluorouracil (NSC19893), paclitaxel (NSC125973), vemurafenib (NSC761431), MSA-2 (NSC828583), SN-011 (NSC837082), adavosertib (NSC754352), prexasertib (NSC758257), carboplatin (NSC241240) and oxaliplatin (NSC266046), were obtained from the National Cancer Institute (NCI) Developmental Therapeutics Program Chemical Repository (21). The FDA-approved anticancer drug set is available from the Developmental Therapeutics Program at https://dtp.cancer.gov/organization/dscb/obtaining/. […] The stock solutions were prepared in dimethyl sulfoxide (DMSO, Sigma-Aldrich, St. Louis, MO, cat. D2650), except for the platinum compounds which were prepared in saline (Quality Biological, Gaithersburg, MD, cat. 114-055-101), at 800-fold the tested concentration and stored at -70 degrees C prior to their use. All drugs and investigational agents were tested over a range starting from a high concentration at or near the clinical Cmax and decreasing in half-log increments. If the clinical Cmax for an agent had not been determined, the highest concentration tested was 10 microM, except for SN-38, which was tested at a high concentration of 1 microM.
Cell Culture. All cells were maintained in an incubator at 37 degrees C and 5% CO2 with 95% humidity. The PDC lines were cultured according to standard operating procedures established by the NCI PDMR (https://pdmr.cancer.gov). Table 3 of the manuscript, lists the cell lines along with the number of the three cell types plated to form the mct-spheroids and media for tumor cell growth. After thawing, all PDC lines, except 997537-175-T-J1-PDC and 415267-285-R-J2-PDC, were cultured in Matrigel-coated flasks prepared with a working solution of 1X Ham's F-12 nutrient mix, without supplementation (Thermo Fisher Scientific, cat. 11765054), 100 U/mL penicillin-streptomycin (Thermo Fisher Scientific, cat. 15140122), and 2.5% Matrigel (Corning Inc., Corning, NY, cat. 354248) for the first three passages. The two PDC lines 997537-175-T-J1-PDC and 415267-285-R-J2-PDC were cultured on uncoated flasks. The 857933-349-R-J2-PDC line was cultured in 6C/Colon 1B media containing advanced DMEM/F-12 (Thermo Fisher Scientific, cat. 12634028), 10 mM HEPES (Thermo Fisher Scientific, cat. 15630080), 1X GlutaMAX supplement (Thermo Fisher Scientific, cat. 35050061), 0.1 mg/mL primocin (InvivoGen, San Diego, CA, cat. ant-pm-2), 10% defined fetal bovine serum, heat inactivated (HyClone Laboratories Inc., Logan, UT, cat. SH30070.03HI), 50% L-WRN conditioned media (ATCC, cat. CRL-3276), 1.25 mM N-Acetyl-L-cysteine (Sigma-Aldrich, cat. A9165), 10 mM nicotinamide (Sigma-Aldrich, cat. N0636), 1X B-27 supplement (Thermo Fisher Scientific, cat. 17504044), 1X N-2 supplement (Thermo Fisher Scientific, cat. […]

[1] = second compound 0.0316 µM, first compound 0.0316 µM
[2] = second compound 0.0316 µM, first compound 0.1 µM
[3] = second compound 0.0316 µM, first compound 0.316 µM
[4] = second compound 0.0316 µM, first compound 1 µM
[5] = second compound 0.0316 µM, first compound 3.16 µM
[6] = second compound 0.0316 µM, first compound 10 µM
[7] = second compound 0.1 µM, first compound 0.0316 µM
[8] = second compound 0.1 µM, first compound 0.1 µM
[9] = second compound 0.1 µM, first compound 0.316 µM
[10] = second compound 0.1 µM, first compound 1 µM
[11] = second compound 0.1 µM, first compound 3.16 µM
[12] = second compound 0.1 µM, first compound 10 µM
[13] = second compound 0.316 µM, first compound 0.0316 µM
[14] = second compound 0.316 µM, first compound 0.1 µM
[15] = second compound 0.316 µM, first compound 0.316 µM
[16] = second compound 0.316 µM, first compound 1 µM
[17] = second compound 0.316 µM, first compound 3.16 µM
[18] = second compound 0.316 µM, first compound 10 µM
[19] = second compound 1 µM, first compound 0.0316 µM
[20] = second compound 1 µM, first compound 0.1 µM
[21] = second compound 1 µM, first compound 0.316 µM
[22] = second compound 1 µM, first compound 1 µM
[23] = second compound 1 µM, first compound 3.16 µM
[24] = second compound 1 µM, first compound 10 µM
[25] = second compound 3.16 µM, first compound 0.0316 µM
[26] = second compound 3.16 µM, first compound 0.1 µM
[27] = second compound 3.16 µM, first compound 0.316 µM
[28] = second compound 3.16 µM, first compound 1 µM
[29] = second compound 3.16 µM, first compound 3.16 µM
[30] = second compound 3.16 µM, first compound 10 µM
[31] = second compound 10 µM, first compound 0.0316 µM
[32] = second compound 10 µM, first compound 0.1 µM
[33] = second compound 10 µM, first compound 0.316 µM
[34] = second compound 10 µM, first compound 1 µM
[35] = second compound 10 µM, first compound 3.16 µM
[36] = second compound 10 µM, first compound 10 µM
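Note: spheroids exposed to drugs for one week before measurement.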
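Throughout, for viability, T/C: percent viability relative to DMSO vehicle control taken as 100%.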

Structure (SMILES): COc1cc2cc(C(=O)CCC(=O)O)sc2cc1OC + Cc1cccc(N(C)C(=O)C2C(O)CCN2c2nc(C)cc(C(F)(F)F)c2C#N)c1
- IC50 (second compound 0.0316 µM): > 10 µM
- IC50 (second compound 0.1 µM): > 10 µM
- IC50 (second compound 0.316 µM): > 10 µM
- IC50 (second compound 1 µM): > 10 µM
- IC50 (second compound 3.16 µM): > 10 µM
- IC50 (second compound 10 µM): > 10 µM
- viability, T/C [1]: 105%
- viability, T/C [2]: 102%
- viability, T/C [3]: 96.3%
- viability, T/C [4]: 113%
- viability, T/C [5]: 111%
- viability, T/C [6]: 109%
- viability, T/C [7]: 98.6%
- viability, T/C [8]: 96%
- viability, T/C [9]: 104%
- viability, T/C [10]: 101%
- viability, T/C [11]: 106%
- viability, T/C [12]: 101%
- viability, T/C [13]: 102%
- viability, T/C [14]: 115%
- viability, T/C [15]: 99.9%
- viability, T/C [16]: 110%
- viability, T/C [17]: 113%
- viability, T/C [18]: 104%
- viability, T/C [19]: 105%
- viability, T/C [20]: 109%
- viability, T/C [21]: 105%
- viability, T/C [22]: 112%
- viability, T/C [23]: 110%
- viability, T/C [24]: 103%
- viability, T/C [25]: 105%
- viability, T/C [26]: 116%
- viability, T/C [27]: 109%
- viability, T/C [28]: 95%
- viability, T/C [29]: 96.1%
- viability, T/C [30]: 97.4%
- viability, T/C [31]: 102%
- viability, T/C [32]: 95.5%
- viability, T/C [33]: 103%
- viability, T/C [34]: 102%
- viability, T/C [35]: 102%
- viability, T/C [36]: 101%

Structure (SMILES): CC1COCCN1c1cc(C2(S(C)(=N)=O)CC2)nc(-c2ccnc3[nH]ccc23)n1 (centres undefined) + Nc1ccc(C#CCN(C(=O)Cc2ncc(C(F)(F)F)cc2C(F)(F)F)c2ccc(F)cc2)nn1
- IC50 (second compound 0.0316 µM): 8.31 µM
- IC50 (second compound 0.1 µM): 5.12 µM
- IC50 (second compound 0.316 µM): 5.54 µM
- IC50 (second compound 1 µM): 5.56 µM
- IC50 (second compound 3.16 µM): 3.74 µM
- IC50 (second compound 10 µM): 2.9 µM
- viability, T/C [1]: 123%
- viability, T/C [2]: 89.2%
- viability, T/C [3]: 110%
- viability, T/C [4]: 84.3%
- viability, T/C [5]: 63.9%
- viability, T/C [6]: 47%
- viability, T/C [7]: 117%
- viability, T/C [8]: 117%
- viability, T/C [9]: 100%
- viability, T/C [10]: 83.8%
- viability, T/C [11]: 56.3%
- viability, T/C [12]: 40.3%
- viability, T/C [13]: 107%
- viability, T/C [14]: 110%
- viability, T/C [15]: 87.3%
- viability, T/C [16]: 89.2%
- viability, T/C [17]: 63%
- viability, T/C [18]: 34.9%
- viability, T/C [19]: 105%
- viability, T/C [20]: 111%
- viability, T/C [21]: 94.4%
- viability, T/C [22]: 94.8%
- viability, T/C [23]: 59.1%
- viability, T/C [24]: 39.8%
- viability, T/C [25]: 99%
- viability, T/C [26]: 91.8%
- viability, T/C [27]: 102%
- viability, T/C [28]: 82.1%
- viability, T/C [29]: 53.2%
- viability, T/C [30]: 35.5%
- viability, T/C [31]: 91.5%
- viability, T/C [32]: 99.2%
- viability, T/C [33]: 84.8%
- viability, T/C [34]: 76%
- viability, T/C [35]: 46.7%
- viability, T/C [36]: 37.1%
